Experimental data from patent publication US20160082161A1, “DRUG-ELUTING MEDICAL DEVICES” (Ramot at Tel-Aviv University Ltd., priority 2008, published 2016).

Assay: In vitro drug release from drug-eluting composite fibers in PBS
Assay type: physicochemical
Details: PBS pH 7.4, 37° C.; PDLGA porous coat
Method: The composite drug-eluting fibers were immersed in phosphate buffered saline (PBS) at 37° C. and pH 7.4 for 35 days (FTS) or 37 weeks (paclitaxel), in triplicates, in order to determine the release kinetics from the drug-loaded composite structures. Each test vial contained 2 fibers; each fiber was 5 cm long. The release studies were conducted in closed glass tubes containing 3 ml PBS medium, using a horizontal bath shaker operated at a constant rate of 130 rpm. The medium was removed completely at certain sampling time points, extracted from the aqueous medium as described herein and measured using HPLC. Fresh medium was then introduced. At the end of the experiment the fibers were immersed in methylene chloride and the residual amount of drug was measured.
The drug content of the medium samples was determined using Jasco High Performance Liquid Chromatography (HPLC) equipped with a UV 2075 plus detector and a quaternary gradient pump (PU 2089 plus). […] The paclitaxel content of the medium samples was determined using a reverse phase column (Zorbax ODS 5 μm, inner diameter 4.6 mm, length 150 mm), and kept at 25° C. […]
On the final day of the in vitro trial, residual FTS from composite drug-eluting fibers was measured as follows: the fibers were placed in 1 ml methylene chloride for 10 minutes and the coating shell was dissolved. […]

Row | SMILES | Drug release from porous coat structures (time scale)
1 | CC(C)=CCCC(C)=CCCC(C)=CCSc1ccccc1C(=O)O (stereo in doubt) [FTS, 2-((2E,6E)-3,7,11-trimethyldodeca-2,6,10-trienylthio)benzoic acid] | relatively fast FTS release within several weeks
2 | CC(=O)O[C@H]1C(=O)[C@@]2(C)[C@H]([C@H](OC(=O)c3ccccc3)[C@]3(O)C[C@H](OC(=O)[C@H](O)[C@@H](NC(=O)c4ccccc4)c4ccccc4)C(C)=C1C3(C)C)[C@]1(OC(C)=O)CO[C@@H]1C[C@@H]2O [paclitaxel, Paclitaxel] | slower paclitaxel release within several months
